Experimental data taken from patent US20220324835A1 (Nurix Therapeutics, Inc., priority 2018, published 2022).
pIC50: −log10 of the molar value.

Assays:
[1] = target: T1, Cbl-b (Homo sapiens, UniProt Q13191); assay: Cbl-b inhibition assay (Cbl-b activity assay, FRET, Biological Example 1; 100 mM NaCl, 60 nM Src kinase); assay type: biochemical; conditions: upper bound stated in text lists; read-out: IC50 values in the Cbl-b inhibition assay of Biological Example 1
Summary of the method: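 TR-FRET assay using N-terminal biotinylated Avi-tagged Cbl-b bound to streptavidin-terbium, Src kinase for Cbl-b phosphorylation, and UbcH5B irreversibly conjugated to Bodipy-Fluorescein-ubiquitin. Phosphorylated Cbl-b binds UbcH5B-Ub, bringing the fluorophores together; inhibition is read as loss of FRET signal.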

[2] = system: T-cell; assay: IL-2 secretion from T-cells co-stimulated with anti-CD3 and anti-CD28 antibody (Biological Example 2); assay type: cell-based, human; conditions: Homo sapiens, T-cell, primary human total T-cells, baseline = anti-CD3/anti-CD28 stimulated cells without inhibitor, read-out: IL-2 secretion, Anti-CD3/Anti-CD28 stimulation, fold change over baseline; for fold induction at 0.3 µM: 0.3 μM compound; for fold induction at 1 µM: 1 μM compound; for fold induction at 4 µM: 4 μM compound
Summary of the method: (§1)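 Values are fold-change over baseline: readings (IL-2 release, CD25 staining) from inhibitor-treated T-cells divided against untreated cells […]. No detailed procedure stated.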

[3] = system: T-cell; assay: CD25 cell surface staining on T-cells co-stimulated with anti-CD3 and anti-CD28 antibody (Biological Example 2); assay type: cell-based, human; conditions: Homo sapiens, T-cell, primary human total T-cells, baseline = anti-CD3/anti-CD28 stimulated cells without inhibitor, read-out: CD25 staining, Anti-CD3/Anti-CD28 stimulation, fold change over baseline; for fold induction at 0.3 µM: 0.3 μM compound; for fold induction at 1 µM: 1 μM compound; for fold induction at 4 µM: 4 μM compound
Summary of the method: as §1

[4] = target: T1, Cbl-b; assay: Cbl-b activity assay (Cbl-b inhibition assay), TR-FRET of Cbl-b interaction with UbcH5B-Ub; assay type: biochemical; conditions: assay buffer with 100 mM NaCl, 60 nM Src kinase; read-out: Cbl-b activity IC50
Summary of the method: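 Compound-treated Cbl-b was incubated 1.5 h with Src kinase (60 nM final; 30 nM for asterisked values, which also used 50 mM instead of 100 mM NaCl), 1 mM ATP and 5 mM MgCl2. Binding to fluorescent Ub-loaded UbcH5B (C85K mutant) was then read by TR-FRET after 1 h more.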

T1 sequence (Q13191 36-427): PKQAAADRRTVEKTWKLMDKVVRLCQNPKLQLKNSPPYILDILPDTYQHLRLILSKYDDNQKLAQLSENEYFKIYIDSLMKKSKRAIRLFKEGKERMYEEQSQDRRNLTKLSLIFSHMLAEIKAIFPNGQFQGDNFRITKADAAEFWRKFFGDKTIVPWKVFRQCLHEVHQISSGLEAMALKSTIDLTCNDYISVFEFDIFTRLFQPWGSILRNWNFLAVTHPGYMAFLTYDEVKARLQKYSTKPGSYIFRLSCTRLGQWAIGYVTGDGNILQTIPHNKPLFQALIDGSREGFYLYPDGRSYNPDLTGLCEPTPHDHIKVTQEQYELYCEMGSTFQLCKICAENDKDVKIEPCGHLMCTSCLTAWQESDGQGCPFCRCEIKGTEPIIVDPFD

Structure (SMILES) | pIC50 [1] | fold induction at 0.3 µM [2] | fold induction at 1 µM [2] | fold induction at 0.3 µM [3] | fold induction at 1 µM [3] | pIC50 [4] | fold induction at 4 µM [2] | fold induction at 4 µM [3]
Cn1cnnc1CC1(c2cccc(N3Cc4c(cc(CN5CCC[C@H](F)C5)cc4C(F)(F)F)C3=O)c2)COC1 [Compound 432, 6-{[(3S)-3-fluoropiperidin-1-yl]methyl}-2-(3-{3-[(4-methyl-4H-1,2,4-triazol-3-yl)methyl]oxetan-3-yl}phenyl)-4-(trifluoromethyl)-2,3-dihydro-1H-isoindol-1-one] | ≥ 7.00 | > 7.5 | > 7.5 | 1.31 to 1.5 | 1.31 to 1.5 | > 7.00 |  | 
Cn1cnnc1C(F)(F)[C@](C)(F)c1cccc(N2Cc3c(cc(C(=O)N4CC[C@H](O)C4)cc3C(F)(F)F)C2=O)c1 [Compound 438, 6-((S)-3-hydroxypyrrolidine-1-carbonyl)-2-(3-((R)-1,1,2-trifluoro-1-(4-methyl-4H-1,2,4-triazol-3-yl)propan-2-yl)phenyl)-4-(trifluoromethyl)isoindolin-1-one] | ≥ 7.00 | 1.01 to 2.5 | 2.51 to 5 | 1.01 to 1.3 | 1.01 to 1.3 | > 7.00 | > 7.5 | 1.31 to 1.5
Cn1cnnc1C(F)(F)[C@](C)(F)c1cccc(N2Cc3c(cc(N4CCNCC4)cc3C(F)(F)F)C2=O)c1 [Compound 442, (R)-6-(Piperazin-1-yl)-2-(3-(1,1,2-trifluoro-1-(4-methyl-4H-1,2,4-triazol-3-yl)propan-2-yl)phenyl)-4-(trifluoromethyl)isoindolin-1-one] | ≥ 7.00 | 2.51 to 5 | > 7.5 | 1.31 to 1.5 | 1.51 to 1.75 | > 7.00 | > 7.5 | 1.51 to 1.75
Cn1cnnc1C(F)(F)[C@](C)(F)c1cccc(N2Cc3c(cc(CN4CC[C@H](F)C4)cc3C(F)(F)F)C2=O)c1 [Compound 447, 6-(((S)-3-fluoropyrrolidin-1-yl)methyl)-2-(3-((R)-1,1,2-trifluoro-1-(4-methyl-4H-1,2,4-triazol-3-yl)propan-2-yl)phenyl)-4-(trifluoromethyl)isoindolin-1-one] | ≥ 7.00 | 2.51 to 5 | > 7.5 | 1.31 to 1.5 | 1.51 to 1.75 | > 7.00 | > 7.5 | 1.51 to 1.75
Cn1cnnc1C(F)(F)[C@](C)(F)c1cccc(N2Cc3c(cc(CN4CCC(F)(F)C4)cc3C(F)(F)F)C2=O)c1 [Compound 448, (R)-6-((3,3-difluoropyrrolidin-1-yl)methyl)-2-(3-(1,1,2-trifluoro-1-(4-methyl-4H-1,2,4-triazol-3-yl)propan-2-yl)phenyl)-4-(trifluoromethyl)isoindolin-1-one] | ≥ 7.00 | 1.01 to 2.5 | 2.51 to 5 | 1.01 to 1.3 | 1.01 to 1.3 | > 7.00 | > 7.5 | 1.31 to 1.5
Cn1cnnc1C(F)(F)[C@](C)(F)c1cccc(N2Cc3c(cc(CN4CC[C@@H](F)C4)cc3C(F)(F)F)C2=O)c1 [Compound 450] | ≥ 7.00 | 2.51 to 5 | > 7.5 | 1.31 to 1.5 | 1.51 to 1.75 | > 7.00 | > 7.5 | 1.51 to 1.75
COC1CN(Cc2cc3c(c(C(F)(F)F)c2)CN(c2cccc([C@@](C)(F)C(F)(F)c4nncn4C)c2)C3=O)C1 [Compound 452, (R)-6-((3-methoxyazetidin-1-yl)methyl)-2-(3-(1,1,2-trifluoro-1-(4-methyl-4H-1,2,4-triazol-3-yl)propan-2-yl)phenyl)-4-(trifluoromethyl)isoindolin-1-one] | ≥ 7.00 | 2.51 to 5 | 5 to 7.5 | 1.01 to 1.3 | 1.31 to 1.5 | > 7.00 | > 7.5 | 1.31 to 1.5
Cn1cnnc1C(F)(F)[C@](C)(F)c1cccc(N2Cc3c(cc(CN4CC[C@@H](C#N)C4)cc3C(F)(F)F)C2=O)c1 [Compound 455, (R)-1-((3-oxo-2-(3-((R)-1,1,2-trifluoro-1-(4-methyl-4H-1,2,4-triazol-3-yl)propan-2-yl)phenyl)-7-(trifluoromethyl)isoindolin-5-yl)methyl)pyrrolidine-3-carbonitrile] | ≥ 7.00 | 5 to 7.5 | > 7.5 | 1.01 to 1.3 | 1.31 to 1.5 | > 7.00 | > 7.5 | 1.31 to 1.5
C[C@H](Cc1nncn1C)c1cccc(NC(=O)c2cc3cc(N4CCNCC4)ccc3cn2)c1 [Compound 472, N-{3-[(2R)-1-(4-methyl-4H-1,2,4-triazol-3-yl)propan-2-yl]phenyl}-6-(piperazin-1-yl)isoquinoline-3-carboxamide] | ≥ 7.00 | < 1 | 1.01 to 2.5 | 1.01 to 1.3 | 1.01 to 1.3 | > 7.00 | 2.51 to 5 | 1.01 to 1.3
Cn1cnnc1CC1(c2cccc(N3Cc4c(cc(CN5CC6(CC6)C5)cc4C(F)(F)F)C3=O)c2)COC1 [Compound 487, 6-{5-azaspiro[2.3]hexan-5-ylmethyl}-2-(3-{3-[(4-methyl-1,2,4-triazol-3-yl)methyl]oxetan-3-yl}phenyl)-4-(trifluoromethyl)-3H-isoindol-1-one] | ≥ 7.00 | > 7.5 | > 7.5 | 1.31 to 1.5 | 1.31 to 1.5 | > 7.00 |  | 
Cn1cnnc1CC1(c2cccc(NC(=O)c3cc(CN4CC[C@H](F)C4)cc(C4CC4)n3)c2)COC1 [Compound 496, 6-cyclopropyl-4-{[(3S)-3-fluoropyrrolidin-1-yl]methyl}-N-(3-{3-[(4-methyl-1,2,4-triazol-3-yl)methyl]oxetan-3-yl}phenyl)pyridine-2-carboxamide] | ≥ 7.00 | > 7.5 | > 7.5 | 1.51 to 1.75 | 1.51 to 1.75 | > 7.00 |  | 
Cn1cnnc1CC1(c2cccc(NC(=O)c3cc(CN4CCC5(CC5)C4)cc(C4CC4)n3)c2)COC1 [Compound 519, 4-((5-azaspiro[2.4]heptan-5-yl)methyl)-6-cyclopropyl-N-(3-(3-((4-methyl-4H-1,2,4-triazol-3-yl)methyl)oxetan-3-yl)phenyl)picolinamide] | ≥ 7.00 | > 7.5 | > 7.5 | 1.31 to 1.5 | 1.31 to 1.5 | > 7.00 |  | 
Cn1cnnc1CC1(c2cccc(N3Cc4c(cc(CN5CCC6(CC6)C5)cc4C(F)(F)F)C3=O)c2)COC1 [Compound 520, 6-((5-azaspiro[2.4]heptan-5-yl)methyl)-2-(3-(3-((4-methyl-4H-1,2,4-triazol-3-yl)methyl)oxetan-3-yl)phenyl)-4-(trifluoromethyl)isoindolin-1-one] | ≥ 7.00 | > 7.5 | > 7.5 | 1.31 to 1.5 | 1.31 to 1.5 | > 7.00 |  | 
C[C@@H](c1cc2c(c(C(F)(F)F)c1)CN(c1cccc(C3(Cc4nncn4C)COC3)c1)C2=O)N1C[C@H]2C[C@H]2C1 [Compound 541a, 6-((1S)-1-(3-azabicyclo[3.1.0]hexan-3-yl)ethyl)-2-(3-(3-((4-methyl-4H-1,2,4-triazol-3-yl)methyl)oxetan-3-yl)phenyl)-4-(trifluoromethyl)isoindolin-1-one] | ≥ 7.00 | > 7.5 | > 7.5 | 1.31 to 1.5 | 1.31 to 1.5 | > 7.00 |  | 
C[C@@H](c1cc2c(c(C(F)(F)F)c1)CN(c1cccc(C3(Cc4nncn4C)COC3)c1)C2=O)N1CCC(C)(F)CC1 [Example 553a, (S)-6-(1-(4-fluoro-4-methylpiperidin-1-yl)ethyl)-2-(3-(3-((4-methyl-4H-1,2,4-triazol-3-yl)methyl)oxetan-3-yl)phenyl)-4-(trifluoromethyl)isoindolin-1-one] | ≥ 7.00 | > 7.5 | > 7.5 | > 1.76 | > 1.76 | > 7.00 |  | 
